In patent US12162872B2, “Cycloalkylurea derivative” (Sumitomo Pharma Co., Ltd., priority 2019, dated 2024):

molecular target: T1, Human orexin receptor type 2 (Homo sapiens, UniProt O43614); assay: Test 1: Evaluation of agonist activity for orexin receptor type 2 (aequorin luminescence, intracellular calcium mobilization in CHO cells); type: cell-based; details: relative percentage of luminescence for the luminescence (100%) of Orexin A (100 pM); CHO cells transiently expressing human orexin receptor type 2 and apoaequorin; Orexin A Lot. 641114
T1 construct: expressed in transfected cells; host or cells: CHO cells (transient expression)
T1 sequence (O43614 1-444): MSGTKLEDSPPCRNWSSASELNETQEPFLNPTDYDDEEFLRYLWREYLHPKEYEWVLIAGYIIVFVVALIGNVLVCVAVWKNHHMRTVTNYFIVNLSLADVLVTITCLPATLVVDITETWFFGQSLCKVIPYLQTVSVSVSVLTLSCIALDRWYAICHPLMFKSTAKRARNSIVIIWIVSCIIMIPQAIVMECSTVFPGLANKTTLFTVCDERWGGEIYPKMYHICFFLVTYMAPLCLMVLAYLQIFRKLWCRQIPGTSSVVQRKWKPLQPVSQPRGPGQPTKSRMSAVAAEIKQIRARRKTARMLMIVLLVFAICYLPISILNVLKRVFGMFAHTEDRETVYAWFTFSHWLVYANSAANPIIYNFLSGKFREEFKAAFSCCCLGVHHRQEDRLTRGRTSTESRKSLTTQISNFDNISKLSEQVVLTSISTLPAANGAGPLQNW
In short: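 CHO cells transiently expressing human OX2 receptor and apoaequorin, seeded 16-22 h, loaded with 1 μM coelenterazine hcp for 2 h at room temperature. Compound added in Hanks/20 mM HEPES/0.1% BSA, 0.1% DMSO final, and calcium luminescence measured. Activity expressed as percent of the 100 pM Orexin A response.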

SMILES	agonist activity (%)
Cc1ccc(C2(C)CCN(C(=O)N[C@@H]3[C@@H](N4CCN(C(C)C)CC4)CCCC3(F)F)CC2)c(C#N)c1 [Example 60, 4-(2-cyano-4-methylphenyl)-N-{(1R,6S)-2,2-difluoro-6-[4-(propan-2-yl)piperazin-1-yl]cyclohexyl}-4-methylpiperidine-1-carboxamide]	151
Cc1ccc(C2(C)CCN(C(=O)N[C@@H]3[C@@H](N4CC5CC(C4)N5C(C)C)CCCC3(F)F)CC2)cc1 [Example 61, N-{(1R,6S)-2,2-difluoro-6-[6-(propan-2-yl)-3,6-diazabicyclo[3.1.1]heptan-3-yl]cyclohexyl}-4-methyl-4-(4-methylphenyl)piperidine-1-carboxamide]	169
CC(C)N1CC2CCC(C1)N2[C@H]1CCCC(F)(F)[C@@H]1NC(=O)N1CCC(C)(c2noc(C3CC3)n2)CC1 [Example 62, 4-(5-cyclopropyl-1,2,4-oxadiazol-3-yl)-N-{(1R,6S)-2,2-difluoro-6-[3-(propan-2-yl)-3,8-diazabicyclo[3.2.1]octan-8-yl]cyclohexyl}-4-methylpiperidine-1-carboxamide]	174
Cc1ccc(C2(C)CCN(C(=O)N[C@@H]3[C@@H](N4C5CCC4CN(C(C)C)C5)CCCC3(F)F)CC2)cc1 [Example 63, N-{(1R,6S)-2,2-difluoro-6-[3-(propan-2-yl)-3,8-diazabicyclo[3.2.1]octan-8-yl]cyclohexyl}-4-methyl-4-(4-methylphenyl)piperidine-1-carboxamide]	149
CC(C)N1CC[C@@H](O[C@H]2CCCC(F)(F)[C@@H]2NC(=O)N2CCC(C)(c3noc(C4CC4)n3)CC2)C1 [Example 64, 4-(5-cyclopropyl-1,2,4-oxadiazol-3-yl)-N-[(1R,6S)-2,2-difluoro-6-{[(3R)-1-(propan-2-yl)pyrrolidin-3-yl]oxy}cyclohexyl]-4-methylpiperidine-1-carboxamide]	204
CC(C)N1CC2CCC(C1)N2[C@H]1CCCC(F)(F)[C@@H]1NC(=O)N1CCC(C)(c2cc(C3CC3)on2)CC1 [Example 65, 4-(5-cyclopropyl-1,2-oxazol-3-yl)-N-{(1R,6S)-2,2-difluoro-6-[3-(propan-2-yl)-3,8-diazabicyclo[3.2.1]octan-8-yl]cyclohexyl}-4-methylpiperidine-1-carboxamide]	155
CC(C)N1CCN([C@H]2CCCC(F)(F)[C@@H]2NC(=O)N2CCC(C)(c3noc([C@@H]4C[C@@H]4F)n3)CC2)CC1 [Example 66, N-{(1R,6S)-2,2-difluoro-6-[4-(propan-2-yl)piperazin-1-yl]cyclohexyl}-4-{5-[(1S,2S)-2-fluorocyclopropyl]-1,2,4-oxadiazol-3-yl}-4-methylpiperidine-1-carboxamide]	144
Cc1ccc(C2(C)CCN(C(=O)N[C@@H]3[C@@H](O[C@@H]4CCN(C(C)C)C4)CCCC3(F)F)CC2)cc1 [Example 67, N-[(1R,6S)-2,2-difluoro-6-{[(3R)-1-(propan-2-yl)pyrrolidin-3-yl]oxy}cyclohexyl]-4-methyl-4-(4-methylphenyl)piperidine-1-carboxamide]	175

Now from value to compound:

agonist activity (%)	SMILES
156	CC(C)N1CCN([C@H]2CCCC(F)(F)[C@@H]2NC(=O)N2CCC(C)(c3noc([C@H]4C[C@H]4C)n3)CC2)CC1 [Example 68, N-{(1R,6S)-2,2-difluoro-6-[4-(propan-2-yl)piperazin-1-yl]cyclohexyl}-4-methyl-4-{5-[(1S,2R)-2-methylcyclopropyl]-1,2,4-oxadiazol-3-yl}piperidine-1-carboxamide]
161	CC(C)N1CCN([C@H]2CCCC(F)(F)[C@@H]2NC(=O)N2CCC(C)(c3noc([C@@H]4C[C@@H]4C)n3)CC2)CC1 [Example 69, N-{(1R,6S)-2,2-difluoro-6-[4-(propan-2-yl)piperazin-1-yl]cyclohexyl}-4-methyl-4-{5-[(1R,2S)-2-methylcyclopropyl]-1,2,4-oxadiazol-3-yl}piperidine-1-carboxamide]
141	CC(C)N1CCN([C@H]2CCCC(F)(F)[C@@H]2NC(=O)N2CCC(C)(c3noc(CC(F)(F)F)n3)CC2)CC1 [Example 70, N-{(1R,6S)-2,2-difluoro-6-[4-(propan-2-yl)piperazin-1-yl]cyclohexyl}-4-methyl-4-[5-(2,2,2-trifluoroethyl)-1,2,4-oxadiazol-3-yl]piperidine-1-carboxamide]
199	CC(C)N1CC[C@H](O[C@H]2CCCC(F)(F)[C@@H]2NC(=O)N2CCC(C)(c3noc(C4CC4)n3)CC2)C1 [Example 71, 4-(5-cyclopropyl-1,2,4-oxadiazol-3-yl)-N-[(1R,6S)-2,2-difluoro-6-{[(3S)-1-(propan-2-yl)pyrrolidin-3-yl]oxy}cyclohexyl]-4-methylpiperidine-1-carboxamide]
146	CC(C)N1CC[C@H](O[C@H]2CCCC(F)(F)[C@@H]2NC(=O)N2CCC(C)(c3noc([C@@H]4C[C@@H]4F)n3)CC2)C1 [Example 72, N-[(1R,6S)-2,2-difluoro-6-{[(3S)-1-(propan-2-yl)pyrrolidin-3-yl]oxy}cyclohexyl]-4-{5-[(1S,2S)-2-fluorocyclopropyl]-1,2,4-oxadiazol-3-yl}-4-methylpiperidine-1-carboxamide]
185	CC(C)N1CC[C@@H](O[C@H]2CCCC(F)(F)[C@@H]2NC(=O)N2CCC(C)(c3noc([C@@H]4C[C@@H]4F)n3)CC2)C1 [Example 73, N-[(1R,6S)-2,2-difluoro-6-{[(3R)-1-(propan-2-yl)pyrrolidin-3-yl]oxy}cyclohexyl]-4-{5-[(1S,2S)-2-fluorocyclopropyl]-1,2,4-oxadiazol-3-yl}-4-methylpiperidine-1-carboxamide]
174	CC(C)N1CC[C@H](O[C@H]2CCCC(F)(F)[C@@H]2NC(=O)N2CCC(C)(c3noc([C@@H]4C[C@@H]4C)n3)CC2)C1 [Example 74, N-[(1R,6S)-2,2-difluoro-6-{[(3S)-1-(propan-2-yl)pyrrolidin-3-yl]oxy}cyclohexyl]-4-methyl-4-(5-[(1R,2S)-2-methylcyclopropyl]-1,2,4-oxadiazol-3-yl)piperidine-1-carboxamide]
141	CC(C)N1C[C@H](O[C@H]2CCCC(F)(F)[C@@H]2NC(=O)N2CCC(C)(c3noc(C4CC4)n3)CC2)[C@@H](F)C1 [Example 75, 4-(5-cyclopropyl-1,2,4-oxadiazol-3-yl)-N-[(1R,6S)-2,2-difluoro-6-{[(3S,4S)-4-fluoro-1-(propan-2-yl)pyrrolidin-3-yl]oxy}cyclohexyl]-4-methylpiperidine-1-carboxamide]
145	CC(C)N1C[C@@H](O[C@H]2CCCC(F)(F)[C@@H]2NC(=O)N2CCC(C)(c3noc(C4CC4)n3)CC2)C(F)(F)C1 [Example 76, 4-(5-cyclopropyl-1,2,4-oxadiazol-3-yl)-N-[(1R,6S)-6-{[(3R)-4,4-difluoro-1-(propan-2-yl)pyrrolidin-3-yl]oxy}-2,2-difluorocyclohexyl]-4-methylpiperidine-1-carboxamide]
178	CC(C)N1CCN([C@H]2CCCC(F)(F)[C@@H]2NC(=S)N2CCC(C)(c3noc(C4CC4)n3)CC2)CC1 [Example 80, 4-(5-cyclopropyl-1,2,4-oxadiazol-3-yl)-N-{(1R,6S)-2,2-difluoro-6-[4-(propan-2-yl)piperazin-1-yl]cyclohexyl}-4-methylpiperidine-1-carbothioamide]
